Experimental data from publication PMC10541198, “Specific quinone reductase 2 inhibitors reduce metabolic burden and reverse Alzheimer’s disease phenotype in mice” (The Journal of Clinical Investigation, 2023).
Values joined by “and” are separate entries in the source; they are usually repeats but may differ in a detail not shown here. Equal values may be shown once. Read-outs that look alike come from different tables or passages of the source.

Assay: Pharmacokinetic study, IV and PO, plasma, brain and liver
Format: in vivo, mouse
Settings: for tolerability / adverse effects: 50 mg/kg p.o. or 10 mg/kg i.v., up to 24 hours; for Plasma concentration, Mean: BQL = below LLOQ (10 ng/ml); for k el: read-out: Kel (Lambda_z) (converted); for MRT inf: read-out: MRT (MRTinf) (converted); for MRT last: read-out: MRT (MRTlast) (converted); for AUC(0-inf): read-out: AUC0→∞ (AUCINF_obs) (converted)
Experimental: The purpose of this study was to determine the pharmacokinetic characteristics of compound NG-537 in C57BL/6J mice following intravenous (IV) and peroral (PO) administration. Levels of NG-537 were determined in blood plasma , brain and liver over time after a single dose .
3.1 Reagents and consumables
DMSO Chromasolv Plus, HPLC grade, ≥99.7% (Sigma-Aldrich, USA; Cat #34869) Acetonitrile Chromasolv, gradient grade, for HPLC, ≥99.9% (Sigma-Aldrich, USA; Cat #34851) Methanol Chromasolv Plus, for HPLC, ≥99.9% (Sigma -Aldrich, USA; Cat 34860) Formic acid for mass spectrometry, ~98% (Fluka, USA; Cat #94318)
Physiological saline (“Yuria -Pharm”, Ukraine, S/# AA13249/1 -1)
Amyl alcohol (UOS, Ukraine) […]
Compound Thiamethoxam was used as internal standard (IS).
Compound NG-537 was supplied as dry powder. The batches of working formulations were prepared 20 min prior to the in vivo study. The vehicle was saline. To prepare the formulation, saline was added to the test compound. The mixture was vortexed for 1 min.
Gradient HPLC system (Shimadzu, Japan)
MS/MS detector API 3000 PE with TurboIonSpray Electrospray module (PE Sciex, Canada) VWR Membrane Nitrogen Generators N2-04-L1466. nitrogen purity 99%+ (VWR, USA) Water purification system Millipore Milli-Q Gradient A10 (Millipore, France) Fixed Speed Vortex Mixer “IKA Lab Dancer” (IKA®-Werke GmbH & Co. KG, Germany; IP-40) Centrifuge 4-15C (Qiagen) (Sigma, Germany)
Ultrasonic bath (Daihan, Korea; WUC-A03H)
(1 picture or pasted object on this page, not shown here)
Study design, animal selection, handling and treatment were all in accordance with the Enamine PK study protocols and the Institutional Animal Care and Use Guidelines. Animal treatment and plasma samples preparation were conducted by the Animal Laboratory personnel at Enamine/Bienta. Male C57BL/6J mice (9-11 weeks old, body weight from 26.1 g to 39.8 g and average body weight across all groups 31.9 g SD = 3.3 g) were used in this study. The animals were randomly assigned to the treatment groups before the pharmacokinetic study; all animals were fasted for 4 h before dosing. Seven time points (5, 15, 30, 60, 240, 480, and 1440 min) were set for this pharmacokinet ic study. Each of the time point treatment group included 4 animals. There was also control group of one animal . Dosing was done according to the treatment schedule outlined in Table 1. Mice were injected IP with 2,2,2-tribromoethanol at the dose of 250 mg/kg prior to drawing the blood. Blood collection was performed from the left ventricle of the heart in tubes containing 10 μl of heparin solution (400 ui/ml). The brain and liver were perfused before sampling. The animal died due to exsanguination during perfusion under anesthesia. All samples were immediately processed, flash-frozen and stored at -70°C until subsequent analysis.
Number of Delivery Target Dose Target Dose Target Dose
Mice Compound ID Formulation Route Level Concentration Volume […]
Plasma samples (40 μl) were mixed with 200 μl of IS solution. After mixing by pipetting and centrifuging for 4 min at 6,000 rpm, 2 μl of each supernatant was injected into LC-MS/MS system.
Solution of compound Thiamethoxam (400 ng/ml in water-methanol mixture 1:9, v/v) was used as internal standard (IS) for quantification of NG-537 in plasma samples.
Analyses of samples were conducted by the Bioanalytical Laboratory personnel at Enamine/Bienta.
Concentrations of NG-537 were determined using high performance liquid chromatography/tandem mass spectrometry (HPLC-MS/MS). Shimadzu HPLC system consisted 2 isocratic pumps LC-10ADvp, an autosampler SIL-20AC, a sub-controller FCV-14AH and a degasser DGU-14A. Mass spectrometric analysis was performed using API 3000 (triple-quadrupole) instrument from AB Sciex (Canada) with an electro -spray (ESI) interface. The data acquisition and system control was performed using Analyst 1.5.2 software (AB […]
3.6 HPLC-MS/MS Conditions
Chromatographic Conditions: […]

[1] = IV 10 mg/kg, 15 min, listed as NG-537, 10 mg/kg
[2] = PO 50 mg/kg, 15 min, listed as NG-537, 50 mg/kg
[3] = male, C57BL/6J, mouse, brain, PO 50 mg/kg
[4] = male, C57BL/6J, mouse, liver, PO 50 mg/kg
[5] = male, C57BL/6J, mouse, plasma, IV 10 mg/kg
[6] = male, C57BL/6J, mouse, plasma, PO 50 mg/kg

Cc1ccc(-c2cn3cccc(C)c3n2)cc1S(=O)(=O)N1CCNCC1 [YB-537]
tolerability / adverse effects: nontoxic and well tolerated
tolerability / adverse effects (listed as NG-537): No obvious adverse effects were observed
bioavailability (C57BL/6J, mouse, in vivo, PO 50 mg/kg vs IV 10 mg/kg, male mice): 82%
Liver concentration, Mouse A-D [1]: 17352 ng/g and 12944 ng/g and 10288 ng/g
Plasma concentration, Mouse A-D [1]: 1001 ng/mL and 1370 ng/mL and 836 ng/mL
Plasma concentration, Mean (IV 10 mg/kg, 240 min): BQL
Plasma concentration, Mouse A-D (IV 10 mg/kg, 240 min, all four BQL): BQL
Plasma concentration, Mean (IV 10 mg/kg, 480 min): BQL
Plasma concentration, Mouse A-D (IV 10 mg/kg, 480 min, all four BQL): BQL
Plasma concentration, Mean (IV 10 mg/kg, 1440 min): BQL
Plasma concentration, Mouse A-D (IV 10 mg/kg, 1440 min, all four BQL): BQL
Brain concentration, Mouse A-D [2]: 227 ng/g and 139 ng/g and 162 ng/g
Plasma concentration, Mouse A-D [2]: 1721 ng/mL and 2715 ng/mL and 1977 ng/mL
Plasma concentration, Mouse A-D (PO 50 mg/kg, 30 min, listed as NG-537, 50 mg/kg): 1258 ng/mL and 2296 ng/mL and 1618 ng/mL
Brain concentration, Mouse A-D (PO 50 mg/kg, 60 min, listed as NG-537, 50 mg/kg): 158 ng/g and 264 ng/g and 241 ng/g
Plasma concentration, Mean (PO 50 mg/kg, 480 min): BQL
Plasma concentration, Mean (PO 50 mg/kg, 1440 min): BQL
Plasma concentration, Mouse A-D (PO 50 mg/kg, 1440 min, all four BQL): BQL
AUC0→t=240min (AUClast) (brain, PO 50 mg/kg): 30500 ng·min/g
AUC0→∞ (AUCINF_obs) (brain, PO 50 mg/kg): 33100 ng·min/g
time of peak brain concentration after oral administration (brain, PO 50 mg/kg): approximately one
time of peak brain concentration following p.o. administration (brain, PO 50 mg/kg): 1 h
peak brain concentration, molar equivalent (brain, oral administration, equivalent of 203 ng/g): approximately 500 nM
AUC0→t=240min (AUClast) (liver, PO 50 mg/kg): 5530000 ng·min/g
AUC0→∞ (AUCINF_obs) (liver, PO 50 mg/kg): 5850000 ng·min/g
concentration at 15 min (male, C57BL/6J, mouse, brain, iv, 10 mg/kg, IV 10 mg/kg, 15 min, read-out: Brain concentration, Mean): 1070 ng/g
concentration at 15 min (male, C57BL/6J, mouse, brain, po, 50 mg/kg, PO 50 mg/kg, 15 min, read-out: Brain concentration, Mean): 172 ng/g
concentration at 15 min (male, C57BL/6J, mouse, brain, po, 50 mg/kg, PO 50 mg/kg, 15 min, read-out: Brain concentration, Mouse A-D): 161 ng/g
concentration at 60 min (male, C57BL/6J, mouse, brain, po, 50 mg/kg, PO 50 mg/kg, 60 min, read-out: Brain concentration, Mean): 203 ng/g
concentration at 60 min (male, C57BL/6J, mouse, brain, po, 50 mg/kg, PO 50 mg/kg, 60 min, read-out: Brain concentration, Mouse A-D): 148 ng/g
concentration at 240 min (male, C57BL/6J, mouse, brain, po, 50 mg/kg, PO 50 mg/kg, 240 min, BQL = below LLOQ, read-out: Brain concentration, Mouse A-D): 37 ng/g
concentration at 240 min (male, C57BL/6J, mouse, brain, po, 50 mg/kg, PO 50 mg/kg, 240 min, read-out: Brain concentration, Mean): 28 ng/g
half-life (male, C57BL/6J, mouse, in vivo, po, 50 mg/kg, brain, PO 50 mg/kg, read-out: T1/2 (HL_Lambda_z)): 63.5 min
half-life (male, C57BL/6J, mouse, in vivo, po, 50 mg/kg, mouse brain, acute oral dosing, read-out: clearance half life (converted)): ~60 min
concentration at 15 min (male, C57BL/6J, mouse, liver, iv, 10 mg/kg, IV 10 mg/kg, 15 min, read-out: Liver concentration, Mean): 13100 ng/g
concentration at 15 min (male, C57BL/6J, mouse, liver, iv, 10 mg/kg, IV 10 mg/kg, 15 min, read-out: Liver concentration, Mouse A-D): 12000 ng/g
concentration at 15 min (male, C57BL/6J, mouse, liver, po, 50 mg/kg, PO 50 mg/kg, 15 min, read-out: Liver concentration, Mean): 67700 ng/g
concentration at 60 min (male, C57BL/6J, mouse, liver, po, 50 mg/kg, PO 50 mg/kg, 60 min, read-out: Liver concentration, Mean): 28000 ng/g
concentration at 240 min (male, C57BL/6J, mouse, liver, po, 50 mg/kg, PO 50 mg/kg, 240 min, read-out: Liver concentration, Mean): 3900 ng/g
concentration at 5 min (male, C57BL/6J, mouse, plasma, iv, 10 mg/kg, IV 10 mg/kg): 2010 ng/mL
concentration at 15 min (male, C57BL/6J, mouse, plasma, iv, 10 mg/kg, IV 10 mg/kg, 15 min, read-out: Plasma concentration, Mean): 1020 ng/mL
concentration at 15 min (male, C57BL/6J, mouse, plasma, iv, 10 mg/kg, IV 10 mg/kg, 15 min, read-out: Plasma concentration, Mouse A-D): 863 ng/mL
concentration at 30 min (male, C57BL/6J, mouse, plasma, iv, 10 mg/kg, IV 10 mg/kg, 30 min, read-out: Plasma concentration, Mean): 432 ng/mL
concentration at 60 min (male, C57BL/6J, mouse, plasma, iv, 10 mg/kg, IV 10 mg/kg, 60 min, read-out: Plasma concentration, Mean): 191 ng/mL
concentration at 5 min (male, C57BL/6J, mouse, plasma, po, 50 mg/kg, PO 50 mg/kg): 451 ng/mL
concentration at 15 min (male, C57BL/6J, mouse, plasma, po, 50 mg/kg, PO 50 mg/kg, 15 min, read-out: Plasma concentration, Mean): 2030 ng/mL
concentration at 15 min (male, C57BL/6J, mouse, plasma, po, 50 mg/kg, PO 50 mg/kg, 15 min, read-out: Plasma concentration, Mouse A-D): 1720 ng/mL
concentration at 30 min (male, C57BL/6J, mouse, plasma, po, 50 mg/kg, PO 50 mg/kg, 30 min, read-out: Plasma concentration, Mean): 1720 ng/mL
concentration at 30 min (male, C57BL/6J, mouse, plasma, po, 50 mg/kg, PO 50 mg/kg, 30 min, read-out: Plasma concentration, Mouse A-D): 1730 ng/mL
concentration at 60 min (male, C57BL/6J, mouse, plasma, po, 50 mg/kg, PO 50 mg/kg, 60 min, read-out: Plasma concentration, Mean): 1130 ng/mL
concentration at 240 min (male, C57BL/6J, mouse, plasma, po, 50 mg/kg, PO 50 mg/kg, 240 min, read-out: Plasma concentration, Mean): 151 ng/mL
concentration at 480 min (male, C57BL/6J, mouse, plasma, po, 50 mg/kg, PO 50 mg/kg, 480 min, three BQL, 15 marked as Grubbs outlier, read-out: Plasma concentration, Mouse A-D): 15 ng/mL
Tmax [3]: 60 min
Cmax (male, C57BL/6J, mouse, brain, PO 50 mg/kg, read-out: Cmax (peak concentration)): 203 ng/g
k el [3]: 0.000182 s⁻¹
MRT inf [3]: 88.2 min
MRT last [3]: 67.5 min
Tmax [4]: 15 min
Cmax (male, C57BL/6J, mouse, liver, PO 50 mg/kg, read-out: Cmax): 67700 ng/g
k el [4]: 0.000203 s⁻¹
MRT inf [4]: 69.5 min
MRT last [4]: 54.9 min
half-life (male, C57BL/6J, mouse, liver, PO 50 mg/kg, read-out: T1/2 (HL_Lambda_z)): 56.8 min
C0 [5]: 2820 ng/mL
AUC(0-t) (male, C57BL/6J, mouse, plasma, IV 10 mg/kg, read-out: AUC0→t=60min (AUClast) (converted)): 790 ng·h/mL
AUC(0-inf) [5]: 867 ng·h/mL
clearance (male, C57BL/6J, mouse, plasma, IV 10 mg/kg, read-out: CL (Cl_obs)): 190 mL/min/kg
k el [5]: 0.000695 s⁻¹
MRT inf [5]: 21.4 min
MRT last [5]: 15.4 min
half-life (male, C57BL/6J, mouse, plasma, IV 10 mg/kg, read-out: T1/2 (HL_Lambda_z)): 16.6 min
Vd (male, C57BL/6J, mouse, plasma, IV 10 mg/kg, read-out: Vd (Vz_obs)): 5 L/kg
Tmax [6]: 15 min
AUC(0-t) (male, C57BL/6J, mouse, plasma, PO 50 mg/kg, read-out: AUC0→t=240min (AUClast) (converted)): 3330 ng·h/mL
AUC(0-inf) [6]: 3550 ng·h/mL
Cmax (male, C57BL/6J, mouse, plasma, PO 50 mg/kg, read-out: Cmax): 2030 ng/mL
k el [6]: 0.000192 s⁻¹
MRT inf [6]: 76.2 min
MRT last [6]: 59.8 min
Cmax (plasma, IV 10 mg/kg (summary table)): 2010 ng/ml(g)
